# Assays:
# [1] = target: T1, Ephrin type-B receptor 1 (Homo sapiens) (UniProt P54762); details: at 10 µM
# T1 sequence (whole entry): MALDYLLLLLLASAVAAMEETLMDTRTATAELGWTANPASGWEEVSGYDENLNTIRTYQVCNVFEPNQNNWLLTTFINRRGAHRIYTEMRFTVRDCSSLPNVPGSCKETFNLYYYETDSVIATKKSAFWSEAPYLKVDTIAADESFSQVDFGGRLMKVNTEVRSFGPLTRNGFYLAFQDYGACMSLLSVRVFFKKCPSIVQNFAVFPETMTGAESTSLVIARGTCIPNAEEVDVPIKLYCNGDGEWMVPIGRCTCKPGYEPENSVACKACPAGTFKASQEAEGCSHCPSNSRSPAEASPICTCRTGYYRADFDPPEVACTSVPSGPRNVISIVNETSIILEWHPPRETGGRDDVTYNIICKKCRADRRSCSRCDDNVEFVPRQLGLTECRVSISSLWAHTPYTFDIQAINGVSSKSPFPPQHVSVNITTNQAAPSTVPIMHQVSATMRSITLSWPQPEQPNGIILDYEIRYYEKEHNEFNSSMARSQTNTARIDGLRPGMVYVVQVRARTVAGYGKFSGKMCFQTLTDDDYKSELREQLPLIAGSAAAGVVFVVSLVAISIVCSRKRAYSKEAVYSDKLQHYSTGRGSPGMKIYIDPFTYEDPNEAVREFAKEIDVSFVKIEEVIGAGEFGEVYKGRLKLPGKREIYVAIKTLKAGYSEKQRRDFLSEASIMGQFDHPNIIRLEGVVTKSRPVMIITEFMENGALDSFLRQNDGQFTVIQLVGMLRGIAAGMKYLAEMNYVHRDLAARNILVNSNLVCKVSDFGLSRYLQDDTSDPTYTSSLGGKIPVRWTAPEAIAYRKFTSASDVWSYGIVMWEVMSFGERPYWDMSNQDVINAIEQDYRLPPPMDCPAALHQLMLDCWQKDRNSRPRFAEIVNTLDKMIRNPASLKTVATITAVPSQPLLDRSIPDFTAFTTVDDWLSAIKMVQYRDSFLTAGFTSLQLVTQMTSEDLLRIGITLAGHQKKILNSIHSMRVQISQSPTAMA
# [2] = target: SRSF protein kinase 2 (Homo sapiens) (UniProt P78362); details: at 10 µM
# Sequence of SRSF protein kinase 2 (Homo sapiens) (P78362 whole entry, looked up): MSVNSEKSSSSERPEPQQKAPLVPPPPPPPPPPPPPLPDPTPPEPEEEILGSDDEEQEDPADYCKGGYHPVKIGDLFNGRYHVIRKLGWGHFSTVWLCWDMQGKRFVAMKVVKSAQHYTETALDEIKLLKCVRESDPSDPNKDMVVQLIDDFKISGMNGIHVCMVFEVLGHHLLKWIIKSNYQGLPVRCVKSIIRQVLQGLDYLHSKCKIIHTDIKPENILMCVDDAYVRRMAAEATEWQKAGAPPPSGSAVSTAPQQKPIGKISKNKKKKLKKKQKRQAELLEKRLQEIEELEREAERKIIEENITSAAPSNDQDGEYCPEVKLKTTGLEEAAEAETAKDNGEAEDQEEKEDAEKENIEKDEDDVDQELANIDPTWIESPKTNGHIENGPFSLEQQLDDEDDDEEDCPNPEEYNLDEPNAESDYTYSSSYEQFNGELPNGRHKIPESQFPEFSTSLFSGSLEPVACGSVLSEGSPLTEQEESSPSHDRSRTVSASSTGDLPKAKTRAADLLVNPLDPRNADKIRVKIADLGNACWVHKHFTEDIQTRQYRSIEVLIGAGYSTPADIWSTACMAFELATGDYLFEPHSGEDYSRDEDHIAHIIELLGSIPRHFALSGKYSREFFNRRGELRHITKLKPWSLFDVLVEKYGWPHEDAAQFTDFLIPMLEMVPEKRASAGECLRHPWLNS
# [3] = target: Serine/threonine-protein kinase WNK2 (Homo sapiens) (UniProt Q9Y3S1); experiment: Selectivity interaction (ActivX KiNativ screen (kinase selectivity in THP-1 cell lysates)) EUB0000639a WNK2; format: subcellular; details: lysate, at 1 µM
# Sequence of Serine/threonine-protein kinase WNK2 (Homo sapiens) (Q9Y3S1 whole entry): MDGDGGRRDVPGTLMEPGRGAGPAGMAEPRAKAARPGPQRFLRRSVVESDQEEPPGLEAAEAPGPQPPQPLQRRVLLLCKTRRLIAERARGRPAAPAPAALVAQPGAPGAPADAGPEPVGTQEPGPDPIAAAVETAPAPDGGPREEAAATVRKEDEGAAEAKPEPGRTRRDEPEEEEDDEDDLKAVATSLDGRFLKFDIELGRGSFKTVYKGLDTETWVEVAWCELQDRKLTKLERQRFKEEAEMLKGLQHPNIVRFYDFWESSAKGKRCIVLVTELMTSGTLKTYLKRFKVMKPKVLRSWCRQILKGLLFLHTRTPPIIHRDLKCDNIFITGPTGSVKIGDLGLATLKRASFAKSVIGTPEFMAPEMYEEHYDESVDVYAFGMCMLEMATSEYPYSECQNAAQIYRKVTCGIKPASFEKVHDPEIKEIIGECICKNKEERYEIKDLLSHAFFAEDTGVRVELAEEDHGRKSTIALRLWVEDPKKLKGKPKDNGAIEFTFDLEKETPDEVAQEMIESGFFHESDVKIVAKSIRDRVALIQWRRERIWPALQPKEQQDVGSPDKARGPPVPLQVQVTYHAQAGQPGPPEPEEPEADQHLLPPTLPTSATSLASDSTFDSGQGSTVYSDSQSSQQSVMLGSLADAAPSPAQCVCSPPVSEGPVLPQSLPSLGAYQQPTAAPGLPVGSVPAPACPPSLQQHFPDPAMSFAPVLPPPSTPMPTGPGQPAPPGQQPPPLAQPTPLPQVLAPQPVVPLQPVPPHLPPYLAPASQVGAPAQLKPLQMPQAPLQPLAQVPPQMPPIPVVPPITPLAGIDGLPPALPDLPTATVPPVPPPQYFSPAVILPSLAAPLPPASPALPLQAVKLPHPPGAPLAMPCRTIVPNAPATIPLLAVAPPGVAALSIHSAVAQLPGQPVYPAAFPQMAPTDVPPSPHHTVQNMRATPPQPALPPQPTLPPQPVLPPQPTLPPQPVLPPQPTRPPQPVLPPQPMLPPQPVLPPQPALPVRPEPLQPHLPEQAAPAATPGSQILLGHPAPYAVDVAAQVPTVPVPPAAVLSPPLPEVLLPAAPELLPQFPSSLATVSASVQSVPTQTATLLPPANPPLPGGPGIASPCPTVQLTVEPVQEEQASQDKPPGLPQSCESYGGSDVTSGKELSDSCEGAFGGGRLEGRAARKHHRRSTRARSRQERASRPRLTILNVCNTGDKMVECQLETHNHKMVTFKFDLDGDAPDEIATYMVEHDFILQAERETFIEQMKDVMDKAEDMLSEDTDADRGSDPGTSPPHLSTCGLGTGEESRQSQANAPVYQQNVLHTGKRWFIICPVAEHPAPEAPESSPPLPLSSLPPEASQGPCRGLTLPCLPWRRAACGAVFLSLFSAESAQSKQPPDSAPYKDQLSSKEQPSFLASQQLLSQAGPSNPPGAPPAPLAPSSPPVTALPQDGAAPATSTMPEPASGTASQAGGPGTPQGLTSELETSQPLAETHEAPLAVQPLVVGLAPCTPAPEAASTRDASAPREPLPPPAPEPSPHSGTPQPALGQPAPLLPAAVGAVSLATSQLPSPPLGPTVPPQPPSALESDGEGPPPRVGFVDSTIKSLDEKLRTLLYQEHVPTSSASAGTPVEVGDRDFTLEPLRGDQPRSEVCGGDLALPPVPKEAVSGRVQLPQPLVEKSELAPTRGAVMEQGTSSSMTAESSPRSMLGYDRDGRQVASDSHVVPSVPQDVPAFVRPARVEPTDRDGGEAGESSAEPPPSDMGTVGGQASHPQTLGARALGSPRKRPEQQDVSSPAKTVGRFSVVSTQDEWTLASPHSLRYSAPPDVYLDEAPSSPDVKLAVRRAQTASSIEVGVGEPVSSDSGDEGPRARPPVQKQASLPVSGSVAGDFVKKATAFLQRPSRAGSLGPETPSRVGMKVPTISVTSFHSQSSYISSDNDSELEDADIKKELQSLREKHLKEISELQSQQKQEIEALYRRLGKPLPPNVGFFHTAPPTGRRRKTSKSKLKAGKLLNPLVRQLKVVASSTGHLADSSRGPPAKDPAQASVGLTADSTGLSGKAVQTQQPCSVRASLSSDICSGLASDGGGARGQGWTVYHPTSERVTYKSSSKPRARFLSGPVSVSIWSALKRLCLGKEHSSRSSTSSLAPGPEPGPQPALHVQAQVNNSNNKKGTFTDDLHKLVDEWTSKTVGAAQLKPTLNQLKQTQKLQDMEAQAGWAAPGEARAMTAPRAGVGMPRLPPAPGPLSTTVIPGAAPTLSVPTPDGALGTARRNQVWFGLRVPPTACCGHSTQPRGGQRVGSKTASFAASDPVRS
# [4] = target: Mitogen-activated protein kinase kinase kinase 4 (Homo sapiens) (UniProt Q9Y6R4); experiment: Selectivity interaction (ActivX KiNativ screen (kinase selectivity in THP-1 cell lysates)) EUB0000639a MAP3K4; format: subcellular; details: lysate
# Sequence of Mitogen-activated protein kinase kinase kinase 4 (Homo sapiens) (Q9Y6R4 whole entry): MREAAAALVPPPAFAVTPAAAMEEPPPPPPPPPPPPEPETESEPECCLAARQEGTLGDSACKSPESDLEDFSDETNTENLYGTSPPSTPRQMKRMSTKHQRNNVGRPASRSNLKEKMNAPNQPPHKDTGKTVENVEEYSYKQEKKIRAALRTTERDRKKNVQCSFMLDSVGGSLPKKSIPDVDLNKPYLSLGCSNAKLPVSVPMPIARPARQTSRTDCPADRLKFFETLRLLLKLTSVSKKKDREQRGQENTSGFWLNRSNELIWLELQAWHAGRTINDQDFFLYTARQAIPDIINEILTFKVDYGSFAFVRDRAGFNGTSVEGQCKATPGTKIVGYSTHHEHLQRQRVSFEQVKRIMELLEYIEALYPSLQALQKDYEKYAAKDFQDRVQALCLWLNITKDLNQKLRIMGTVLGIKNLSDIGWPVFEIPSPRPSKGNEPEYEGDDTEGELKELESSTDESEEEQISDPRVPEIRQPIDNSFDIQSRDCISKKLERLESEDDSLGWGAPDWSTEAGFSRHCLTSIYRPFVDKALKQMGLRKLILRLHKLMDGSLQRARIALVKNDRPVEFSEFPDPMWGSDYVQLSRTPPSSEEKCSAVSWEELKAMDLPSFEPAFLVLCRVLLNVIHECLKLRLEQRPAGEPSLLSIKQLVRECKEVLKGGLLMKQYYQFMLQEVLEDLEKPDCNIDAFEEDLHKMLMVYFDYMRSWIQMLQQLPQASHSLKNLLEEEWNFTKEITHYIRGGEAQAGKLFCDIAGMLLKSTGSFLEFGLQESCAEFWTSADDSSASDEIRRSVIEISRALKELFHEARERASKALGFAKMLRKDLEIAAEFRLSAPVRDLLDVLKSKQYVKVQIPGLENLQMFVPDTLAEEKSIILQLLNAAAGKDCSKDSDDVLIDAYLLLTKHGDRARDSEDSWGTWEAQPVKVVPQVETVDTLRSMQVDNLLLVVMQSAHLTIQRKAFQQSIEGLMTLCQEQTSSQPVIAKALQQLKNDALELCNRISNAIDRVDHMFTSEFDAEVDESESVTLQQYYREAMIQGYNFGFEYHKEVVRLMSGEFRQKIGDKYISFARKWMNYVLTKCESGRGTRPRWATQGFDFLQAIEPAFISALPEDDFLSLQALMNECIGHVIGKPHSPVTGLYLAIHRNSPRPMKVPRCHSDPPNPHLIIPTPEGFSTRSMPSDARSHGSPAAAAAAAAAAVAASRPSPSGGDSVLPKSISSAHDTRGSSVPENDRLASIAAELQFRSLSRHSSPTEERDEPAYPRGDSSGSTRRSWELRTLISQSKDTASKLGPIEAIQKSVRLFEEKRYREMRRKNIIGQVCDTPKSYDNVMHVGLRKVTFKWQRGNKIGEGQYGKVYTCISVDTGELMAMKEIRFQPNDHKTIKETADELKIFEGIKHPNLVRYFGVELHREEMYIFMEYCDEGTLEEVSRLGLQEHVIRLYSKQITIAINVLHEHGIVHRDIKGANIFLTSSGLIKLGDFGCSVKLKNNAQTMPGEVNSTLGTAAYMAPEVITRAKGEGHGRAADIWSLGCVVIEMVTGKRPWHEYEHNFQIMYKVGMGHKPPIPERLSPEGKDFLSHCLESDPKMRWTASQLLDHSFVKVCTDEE
# [5] = target: T2, cAMP-dependent protein kinase catalytic subunit PRKX (Homo sapiens) (UniProt P51817); experiment: Selectivity interaction (KinomeScan (DiscoverX)) EUB0000092b PRKX; details: at 10 µM
# T2 sequence (whole entry): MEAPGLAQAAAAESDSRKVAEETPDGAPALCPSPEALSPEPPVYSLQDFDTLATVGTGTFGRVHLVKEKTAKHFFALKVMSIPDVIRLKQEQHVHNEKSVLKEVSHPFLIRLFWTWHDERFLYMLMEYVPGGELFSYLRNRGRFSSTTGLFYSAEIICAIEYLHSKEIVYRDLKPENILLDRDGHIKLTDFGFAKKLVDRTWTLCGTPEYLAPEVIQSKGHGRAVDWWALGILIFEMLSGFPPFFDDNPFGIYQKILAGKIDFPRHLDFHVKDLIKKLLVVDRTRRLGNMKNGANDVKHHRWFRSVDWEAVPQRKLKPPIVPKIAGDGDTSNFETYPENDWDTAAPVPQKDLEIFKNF
# [6] = target: T3, Mitogen-activated protein kinase kinase kinase 7 (Homo sapiens) (UniProt O43318); experiment: Selectivity interaction (KinomeScan (DiscoverX)) EUB0000607a MAP3K7; details: at 10 µM
# T3 sequence (whole entry): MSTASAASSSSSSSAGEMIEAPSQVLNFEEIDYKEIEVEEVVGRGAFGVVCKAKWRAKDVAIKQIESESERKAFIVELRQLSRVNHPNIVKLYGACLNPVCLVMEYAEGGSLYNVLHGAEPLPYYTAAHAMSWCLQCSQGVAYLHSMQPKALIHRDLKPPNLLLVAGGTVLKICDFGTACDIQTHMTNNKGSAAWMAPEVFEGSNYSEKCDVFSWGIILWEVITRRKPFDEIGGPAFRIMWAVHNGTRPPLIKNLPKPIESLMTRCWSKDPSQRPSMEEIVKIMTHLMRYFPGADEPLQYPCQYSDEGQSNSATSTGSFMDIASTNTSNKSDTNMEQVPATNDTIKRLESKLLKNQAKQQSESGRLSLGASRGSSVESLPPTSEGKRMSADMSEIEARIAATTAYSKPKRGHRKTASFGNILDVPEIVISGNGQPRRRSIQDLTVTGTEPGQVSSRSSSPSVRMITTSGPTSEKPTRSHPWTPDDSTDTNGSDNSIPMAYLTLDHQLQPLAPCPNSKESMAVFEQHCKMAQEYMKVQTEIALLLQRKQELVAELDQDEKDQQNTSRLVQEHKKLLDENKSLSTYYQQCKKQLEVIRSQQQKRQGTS
structure (smiles),measurement,setting,value
Cc1cc([C@@H](C)Nc2ccccc2C(=O)O)c2nc(N3CCOCC3)cc(=O)n2c1 [AZD-6482],% of control,[1],98%
same,% of control,[2],85%
CC[C@@H]1[C@H](F)C(=O)N[C@@H]1COc1nccc2cc(C(N)=O)c(OC)cc12 [ZIMLOVISERTIB],% of inhibition,[3],-7.7%
same,% of inhibition,[4]; at 0.01 µM,18.5%
same,% of inhibition,[4]; at 0.04 µM,-5.7%
same,% of inhibition,[4]; at 0.2 µM,-1.4%
same,% of inhibition,[4]; at 1 µM,-23%
same,% of inhibition,[4]; at 5 µM,6.4%
CCC(=O)N1CCN(c2ccc(-n3c(=O)ccc4cnc5ccc(-c6cnc7ccccc7c6)cc5c43)cc2C(F)(F)F)CC1,% of control,[5],83%
CNC(=O)Nc1ccc(-c2nc(N3CC4CCC(C3)O4)c3cnn(C4CCC5(CC4)OCCO5)c3n2)cc1,% of control,[6],98%

# Source: ChEMBL document CHEMBL5465560, “Selectivity Literature for EUbOPEN Chemogenomic Library” (2024)
